One test addresses T1, CDK1/Cyclin B (Homo sapiens, UniProt P14635).
T1 construct: 6xHis; made in house; host or cells: Sf9 insect cells (baculovirus co-expression)
Kind of test: CDK1/Cyclin B kinase assay, phosphorylation of GST-Rb. The settings on record: CDK1-Cyclin B induced phosphorylation of GST-Rb. It is filed as biochemical. The method, then: The phosphorylation reaction mixture (total volume 40 μl) consisted of 50 mM HEPES pH 7.4, 20 mM MgCl2, 5 mM EGTA, 2 mM DTT, 20 mM β-glycerophosphate, 2 mM NaF, 1 mM Na3VO4, Protease Inhibitors Cocktail (Sigma, see above), BSA 0.5 mg/ml, 1 μg purified enzyme complex, 10 μl of GST-Rb-Sepharose beads, 100 μM ATP, 0.2 μCi ^32P-ATP. The reaction was carried out for 30 min at 30° C. at constant shaking. At the end of this period 100 μl of 50 mM HEPES, pH 7.4 and 1 mM ATP were added to each well and the total volume was transferred onto GFC filtered plate. The plate was washed 5 times with 200 μl of 50 mM HEPES, pH 7.4 and 1 mM ATP. To each well were added 50 μl scintillant liquid and the radioactivity of the samples was measured on Scintilation counter (Topcount, HP). The IC50 values of different peptides were calculated using GraFit software.

In another test the target is Cyclin A (Homo sapiens, UniProt P20248). Briefly: Pull-down with immobilised biotinylated peptide: cyclin A. It is filed as binding. The settings on record: biotinylated peptide on streptavidin-agarose beads. An excerpt:
(§1) A biotinylated version of p21(149-159) was used in “pull-down” experiments with the purified CDK sub-units, CDK2, CDK4, cyclin A, cyclin D1, and with the complexes of CDK2/cyclin A or CDK4/cyclin D1 kinases, in order to determine the binding partner of the peptide. The biotinylated peptide was pre-immobilised on streptavidin-agarose beads. […] Both CDK2 and CDK4 were “pulled down”, however, with biotinylated p21(149-159)-streptavidin-agarose beads when they were in a complex with cyclin A or cyclin D1, respectively. Similar results were obtained with cyclin E and CDK2/cyclin E complex. […] Such a method may be utilised either alone or together with a candidate substance to identify cyclin binding moities and/or inhibitors of cyclin-CDK interaction.

Another test deals with T2, Cyclin D1 (Homo sapiens, UniProt P24385).
T2 construct: made in house
Kind of test: Pull-down with immobilised biotinylated peptide: cyclin D1. The class given is binding. The settings on record: biotinylated peptide on streptavidin-agarose beads.
Text: as §1

A further test has as its target CDK2 (Homo sapiens, UniProt P24941). Kind of test: Pull-down with immobilised biotinylated peptide: CDK2. It is filed as binding. The following applies: in the absence of cyclin partner.
Text: as §1

For a further test, the target named is T3, CDK4 (Homo sapiens, UniProt P11802).
T3 construct: 6xHis; made in house; host or cells: Sf9 insect cells (baculovirus)
Kind of test: Pull-down with immobilised biotinylated peptide: CDK4. The class given is binding. The following applies: in the absence of cyclin partner.
Text: as §1

Some results are limits rather than exact numbers.

As usually defined, the IC50 is the concentration needed to halve the response being measured.

T3 sequence (P11802 whole entry, species assumed): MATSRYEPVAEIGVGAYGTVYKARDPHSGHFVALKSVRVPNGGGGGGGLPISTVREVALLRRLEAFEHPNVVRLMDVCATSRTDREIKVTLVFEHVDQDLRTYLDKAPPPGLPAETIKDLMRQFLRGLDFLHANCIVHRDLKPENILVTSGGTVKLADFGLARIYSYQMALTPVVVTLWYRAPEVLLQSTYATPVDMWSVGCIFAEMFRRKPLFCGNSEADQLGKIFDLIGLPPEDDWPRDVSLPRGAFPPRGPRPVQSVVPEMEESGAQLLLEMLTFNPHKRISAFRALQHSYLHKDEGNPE
Sequence of Cyclin A (P20248 whole entry): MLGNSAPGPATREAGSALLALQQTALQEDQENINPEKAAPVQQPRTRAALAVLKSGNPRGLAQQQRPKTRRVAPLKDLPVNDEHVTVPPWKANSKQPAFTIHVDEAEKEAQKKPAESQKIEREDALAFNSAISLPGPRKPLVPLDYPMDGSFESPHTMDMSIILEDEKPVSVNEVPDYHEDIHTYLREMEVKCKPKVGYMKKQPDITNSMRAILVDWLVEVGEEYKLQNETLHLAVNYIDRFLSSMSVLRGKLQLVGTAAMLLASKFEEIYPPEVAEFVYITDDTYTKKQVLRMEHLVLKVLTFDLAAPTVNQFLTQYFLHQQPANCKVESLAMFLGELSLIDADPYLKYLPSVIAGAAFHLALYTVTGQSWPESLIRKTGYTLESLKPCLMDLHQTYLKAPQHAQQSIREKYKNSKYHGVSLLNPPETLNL
T1 sequence (P14635 whole entry): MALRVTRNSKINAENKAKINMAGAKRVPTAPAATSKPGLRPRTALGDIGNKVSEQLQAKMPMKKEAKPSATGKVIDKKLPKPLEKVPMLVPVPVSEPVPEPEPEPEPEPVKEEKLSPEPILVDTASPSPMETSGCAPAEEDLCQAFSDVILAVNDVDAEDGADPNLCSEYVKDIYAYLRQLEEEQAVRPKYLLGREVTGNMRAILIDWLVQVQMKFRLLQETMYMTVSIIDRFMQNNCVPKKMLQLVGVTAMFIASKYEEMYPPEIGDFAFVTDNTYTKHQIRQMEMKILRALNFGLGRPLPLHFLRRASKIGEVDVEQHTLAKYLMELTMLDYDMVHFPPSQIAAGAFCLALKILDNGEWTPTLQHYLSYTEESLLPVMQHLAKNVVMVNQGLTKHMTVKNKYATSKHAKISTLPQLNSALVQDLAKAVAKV
T1 sequence (P06493 whole entry partner): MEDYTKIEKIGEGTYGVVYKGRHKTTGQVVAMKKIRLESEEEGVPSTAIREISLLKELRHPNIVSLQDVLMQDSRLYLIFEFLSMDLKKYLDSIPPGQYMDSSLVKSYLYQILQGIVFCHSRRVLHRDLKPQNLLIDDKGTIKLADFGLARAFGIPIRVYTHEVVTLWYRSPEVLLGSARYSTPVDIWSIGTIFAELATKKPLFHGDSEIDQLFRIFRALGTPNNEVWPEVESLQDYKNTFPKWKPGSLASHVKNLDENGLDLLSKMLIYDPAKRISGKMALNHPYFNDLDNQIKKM
T2 sequence (P24385 whole entry): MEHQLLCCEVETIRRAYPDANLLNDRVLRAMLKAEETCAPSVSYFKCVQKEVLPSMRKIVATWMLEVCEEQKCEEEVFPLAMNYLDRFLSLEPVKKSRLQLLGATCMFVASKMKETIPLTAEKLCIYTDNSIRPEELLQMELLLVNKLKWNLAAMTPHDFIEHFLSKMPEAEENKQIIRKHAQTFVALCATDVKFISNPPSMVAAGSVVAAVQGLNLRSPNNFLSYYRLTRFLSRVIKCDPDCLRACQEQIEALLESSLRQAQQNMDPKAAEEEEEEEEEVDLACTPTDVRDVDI

At CDK1/Cyclin B, H-DFYHSKRRLIF-NH2 [p21(149-159)] showed an IC50 greater than 200 µM. Moreover, the “binding to cyclin A in pull-down” value at Cyclin A is given as “bound”. Besides, on Cyclin D1, the “binding to cyclin D1 in pull-down” value was “bound”. For the same substance, the “binding to CDK2 in pull-down” value on CDK2 was “failed to interact”. In addition, the “binding to CDK4 in pull-down” value on CDK4 was “failed to interact”.

The record behind these values is US20050153894A1, “p21 peptides” (Cyclacel Limited, priority 1999, published 2005).
